This is an account of results in patent publication US20250276964A1 (Novartis AG, priority 2021, published 2025).

In the assay the target is T1, WIZ (Homo sapiens, UniProt O95785+Q96SW2).
T1 construct: expressed in transfected cells
Nature of the assay: Quantification of WIZ protein levels in HiBit tag fusion protein assay (WIZ HiBit assay in 293T cells). It is filed as cell-based. The conditions noted are these: for Dmax at 25 µM / remaining activity at 25 µM: HEK-293T; for Dmax at 25 µM / % degradation of WIZ (100-Amax): 100 minus Amax at 25 uM; for Dmax at 25 µM: read-out: % degradation of WIZ (100-Amax); for remaining activity at 25 µM / WIZ Amax: DMSO-normalized, curve-fitted percentage of WIZ-HiBit remaining at 25 uM; for remaining activity at 25 µM: read-out: WIZ Amax; for DC50: WIZ HiBit assay in 293T cells, 10-point, 5-fold dilution, highest concentration 25 μM, about 18 hours, read-out: WIZ AC50. On the procedure: The HiBit system from Promega was used to develop high-throughput and quantitative assays to measure changes in WIZ protein levels in response to compounds. The HiBit tag was derived from a split Nanoluciferase and has the following protein sequence: […] (SEQ ID NO: 1). The complementary fragment of Nanoluciferase (known as LgBit, from Promega), was added to the HiBit tag to form an active Nanoluciferase enzyme whose activity can be precisely measured. In this way, the levels of a fusion protein with the HiBit tag can be quantified in cell lysates.
Lentiviral vectors, based on the Invitrogen™ pLenti6.2/V5 DEST backbone were constructed that places the HiBit tag upstream of WIZ and expressed the fusion protein from an HSVTK promotor.
To ensure moderate and consistent expression of the HiBit-WIZ fusion protein across all cells in the population, stable cell lines were constructed from cells harboring a single copy of the construct. Lentivirus packaged with the constructs were made using the ViraPower™kit from Invitrogen™. 293T cells from ATCC (Catalog number: CRL-3216), were infected with the virus at low multiplicity of infection and selected by 5 μg/mL blasticidin in culture media for 2 weeks.
The levels of HiBit-WIZ tagged fusion proteins in compound-treated cell lines were measured as follows:
On day 1, cells were diluted to 1.0×10^6 cells/ml in normal growth medium. 20 μL of cell suspension were plated in each well of a solid white 384-well plate. Plates were incubated overnight in a 37° C. and 5% CO2 humidified tissue culture incubator.
On day 2, serial dilutions of compounds were made in 384-well plates. Compound plates were set up with DMSO in columns 1, 2, 23, 24, and 10-point compound dilution series in column 3-12 and column 13-22. 10 mM stock solution of compound were placed into column 3 or 13 and a 1:5 serial dilution was carried out until there was a 10-point dilution series per compound. 50 nL of diluted compounds were transferred into the plated cells by Echo® (Labcyte) acoustic transfer. The highest concentration of compound was 25 μM. Plates were incubated overnight (about 18 hours) in a 37° C. and 5% CO2 humidified tissue culture incubator.
On day 3, plates were removed from the incubator and allowed to equilibrate at room temperature for 60 minutes. HiBit substrate (Nano-Glo® HiBit Lytic Detection System, Promega Catalogue number: N3050) was added as described by the manufacturers protocols. Plates were incubated at room temperature for 30 minutes and luminescence was read using an EnVision® reader (PerkinElmer®). Data was analyzed and visualized using the Spotfire® software package.
WIZ Amax reflects the DMSO-normalized, curve-fitted percentage of WIZ-HiBit remaining at 25 uM. It was calculated by normalizing DMSO controls to 100%, parametric curve fitting of the dose response data (10-point, 5-fold), followed by calculation of response at 25 uM using the fitted equation (nd=not determined).
A general note: The HiBiT peptide binds its large partner to form an active luciferase.

Molecules are shown by their SMILES.

T1 sequence (O95785 whole entry): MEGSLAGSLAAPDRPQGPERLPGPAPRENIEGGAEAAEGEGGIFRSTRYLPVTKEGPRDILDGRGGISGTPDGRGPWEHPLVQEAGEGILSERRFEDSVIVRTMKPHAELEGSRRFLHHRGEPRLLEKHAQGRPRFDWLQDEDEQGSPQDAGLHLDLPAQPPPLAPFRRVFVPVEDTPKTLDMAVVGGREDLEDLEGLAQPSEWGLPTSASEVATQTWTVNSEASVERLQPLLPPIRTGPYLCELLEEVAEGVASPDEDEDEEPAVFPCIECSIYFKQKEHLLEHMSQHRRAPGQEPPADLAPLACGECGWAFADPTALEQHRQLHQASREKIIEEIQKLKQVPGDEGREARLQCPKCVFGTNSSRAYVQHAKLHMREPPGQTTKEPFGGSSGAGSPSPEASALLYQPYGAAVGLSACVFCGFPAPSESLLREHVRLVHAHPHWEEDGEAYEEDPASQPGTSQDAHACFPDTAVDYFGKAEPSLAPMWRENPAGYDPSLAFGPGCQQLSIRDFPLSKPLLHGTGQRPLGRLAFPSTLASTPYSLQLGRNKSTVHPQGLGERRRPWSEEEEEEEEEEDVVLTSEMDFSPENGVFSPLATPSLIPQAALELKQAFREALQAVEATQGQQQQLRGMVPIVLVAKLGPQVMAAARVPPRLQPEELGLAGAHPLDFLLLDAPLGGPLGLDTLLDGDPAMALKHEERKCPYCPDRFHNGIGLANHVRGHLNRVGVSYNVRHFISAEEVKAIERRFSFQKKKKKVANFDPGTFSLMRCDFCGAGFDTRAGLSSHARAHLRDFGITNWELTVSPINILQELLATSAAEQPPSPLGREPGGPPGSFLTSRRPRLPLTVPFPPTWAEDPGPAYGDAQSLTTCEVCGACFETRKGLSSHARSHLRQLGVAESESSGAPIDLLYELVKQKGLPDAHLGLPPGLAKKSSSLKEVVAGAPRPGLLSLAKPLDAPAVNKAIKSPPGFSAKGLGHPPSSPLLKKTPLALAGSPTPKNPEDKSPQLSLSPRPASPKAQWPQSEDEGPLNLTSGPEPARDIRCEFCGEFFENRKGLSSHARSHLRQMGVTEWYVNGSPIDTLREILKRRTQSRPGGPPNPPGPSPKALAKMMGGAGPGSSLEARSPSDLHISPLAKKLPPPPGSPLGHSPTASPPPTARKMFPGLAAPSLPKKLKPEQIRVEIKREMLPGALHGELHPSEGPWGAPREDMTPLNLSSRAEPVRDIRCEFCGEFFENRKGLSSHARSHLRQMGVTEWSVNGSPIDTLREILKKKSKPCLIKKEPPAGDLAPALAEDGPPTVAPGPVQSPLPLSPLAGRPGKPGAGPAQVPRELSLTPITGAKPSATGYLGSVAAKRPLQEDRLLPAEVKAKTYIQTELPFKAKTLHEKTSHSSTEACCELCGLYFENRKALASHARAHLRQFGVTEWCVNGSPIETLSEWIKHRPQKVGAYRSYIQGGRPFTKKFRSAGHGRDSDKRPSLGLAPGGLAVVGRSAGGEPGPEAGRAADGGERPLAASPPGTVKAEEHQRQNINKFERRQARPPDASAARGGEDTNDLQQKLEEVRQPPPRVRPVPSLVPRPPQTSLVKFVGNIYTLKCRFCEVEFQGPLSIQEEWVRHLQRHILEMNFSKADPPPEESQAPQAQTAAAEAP
T1 sequence (Q96SW2 whole entry): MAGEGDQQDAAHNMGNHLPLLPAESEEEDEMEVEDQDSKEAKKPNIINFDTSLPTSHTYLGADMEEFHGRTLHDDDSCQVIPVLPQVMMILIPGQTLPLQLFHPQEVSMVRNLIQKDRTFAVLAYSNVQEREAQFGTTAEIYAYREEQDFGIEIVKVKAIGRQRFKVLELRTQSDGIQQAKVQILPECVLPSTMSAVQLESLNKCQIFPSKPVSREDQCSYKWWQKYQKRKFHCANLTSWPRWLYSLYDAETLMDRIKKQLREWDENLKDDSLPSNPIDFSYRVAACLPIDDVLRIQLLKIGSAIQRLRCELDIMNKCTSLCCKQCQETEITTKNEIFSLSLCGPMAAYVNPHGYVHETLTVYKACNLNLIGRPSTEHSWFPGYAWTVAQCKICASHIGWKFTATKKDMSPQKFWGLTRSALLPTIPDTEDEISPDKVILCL
T1 sequence (Q16531 whole entry partner): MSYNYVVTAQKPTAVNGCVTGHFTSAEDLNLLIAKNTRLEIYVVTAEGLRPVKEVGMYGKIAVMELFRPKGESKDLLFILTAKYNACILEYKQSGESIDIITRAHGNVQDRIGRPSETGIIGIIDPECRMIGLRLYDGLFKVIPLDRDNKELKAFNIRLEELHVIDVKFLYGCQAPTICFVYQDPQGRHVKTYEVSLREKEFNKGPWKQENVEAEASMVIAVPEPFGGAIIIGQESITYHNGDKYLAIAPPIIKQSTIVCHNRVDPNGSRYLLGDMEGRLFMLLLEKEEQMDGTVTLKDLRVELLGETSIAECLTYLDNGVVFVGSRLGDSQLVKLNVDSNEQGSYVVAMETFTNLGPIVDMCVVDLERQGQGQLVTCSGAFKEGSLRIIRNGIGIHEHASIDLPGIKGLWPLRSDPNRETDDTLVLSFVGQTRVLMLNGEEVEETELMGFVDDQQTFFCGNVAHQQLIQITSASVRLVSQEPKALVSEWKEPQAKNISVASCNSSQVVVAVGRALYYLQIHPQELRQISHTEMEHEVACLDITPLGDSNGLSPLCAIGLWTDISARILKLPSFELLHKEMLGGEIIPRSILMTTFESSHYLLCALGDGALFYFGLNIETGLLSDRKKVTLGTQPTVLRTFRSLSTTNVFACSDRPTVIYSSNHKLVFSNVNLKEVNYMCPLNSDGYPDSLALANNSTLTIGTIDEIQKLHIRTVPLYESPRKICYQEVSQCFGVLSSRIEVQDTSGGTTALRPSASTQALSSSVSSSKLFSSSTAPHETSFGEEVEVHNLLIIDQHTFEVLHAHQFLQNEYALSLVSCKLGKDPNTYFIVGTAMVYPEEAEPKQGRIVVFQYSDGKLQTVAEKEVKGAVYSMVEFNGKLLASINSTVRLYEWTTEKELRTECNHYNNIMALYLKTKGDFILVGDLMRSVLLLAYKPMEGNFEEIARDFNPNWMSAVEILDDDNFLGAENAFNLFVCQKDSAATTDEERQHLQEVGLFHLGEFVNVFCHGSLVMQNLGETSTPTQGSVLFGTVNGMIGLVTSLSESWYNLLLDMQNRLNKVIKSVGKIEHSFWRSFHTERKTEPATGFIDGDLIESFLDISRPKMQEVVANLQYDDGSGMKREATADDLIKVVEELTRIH

In the case of `CC(C)C(=O)N1CCN(Cc2ccc3onc(N4CCC(=O)NC4=O)c3c2)CC1` [Example 85, 1-(5-((4-isobutyrylpiperazin-1-yl)methyl)benzo[d]isoxazol-3-yl)dihydropyrimidine-2,4(1H,3H)-dione], the Dmax at 25 µM was determined as 82%, the remaining activity at 25 µM came to 18% and the DC50 is 218 nM.

Turning to `CN1CCCC(Cc2ccc3onc(N4CCC(=O)NC4=O)c3c2)CC1` (stereo not drawn) [Example 53, 1-(5-((1-methylazepan-4-yl)methyl)benzo[d]isoxazol-3-yl)dihydropyrimidine-2,4(1H,3H)-dione], the Dmax at 25 µM worked out at 87%, the remaining activity at 25 µM stood at 13% and the DC50 amounted to 4 nM.

On to `O=C1CCN(c2noc3ccc(CC4CCCNC4)cc23)C(=O)N1` (stereo not drawn) [Example 43, 1-(5-(piperidin-3-ylmethyl)benzo[d]isoxazol-3-yl)dihydropyrimidine-2,4(1H,3H)-dione], for which the Dmax at 25 µM was found to be 78%, the remaining activity at 25 µM came to 22% and the DC50 stood at 940 nM.

Turning to `O=C1CCN(c2noc3ccc(CC4C[C@H]5CC[C@@H](C4)N5)cc23)C(=O)N1` (stereo partly drawn) [Example 56, 1-(5-(((1R,5S)-8-azabicyclo[3.2.1]octan-3-yl)methyl)benzo[d]isoxazol-3-yl)dihydropyrimidine-2,4(1H,3H)-dione], the “% degradation of WIZ (100-Amax)” value is reported as 45%, the “WIZ Amax” value amounted to 55% and the DC50 was 251 nM.

As to `C[C@H]1CN(S(C)(=O)=O)[C@@H](C)CN1Cc1ccc2onc(N3CCC(=O)NC3=O)c2c1` [Example 105, 1-(5-(((2S,5S)-2,5-dimethyl-4-(methylsulfonyl)piperazin-1-yl)methyl)benzo[d]isoxazol-3-yl)dihydropyrimidine-2,4(1H,3H)-dione], the Dmax at 25 µM is 75%, the remaining activity at 25 µM came to 25% and the DC50 was 373 nM.

`O=C1CCN(c2noc3ccc(CC4CCCN(CC5CCCCC5)C4)cc23)C(=O)N1` (stereo not drawn) [Example 44, 1-(5-((1-(cyclohexylmethyl)piperidin-3-yl)methyl)benzo[d]isoxazol-3-yl)dihydropyrimidine-2,4(1H,3H)-dione]: the Dmax at 25 µM was 77%, the remaining activity at 25 µM turned out to be 23% and the DC50 worked out at 475 nM.

With `CS(=O)(=O)N1CC2CCC1CN2Cc1ccc2onc(N3CCC(=O)NC3=O)c2c1` (single isomer, unassigned) [Example 126, 1-(5-((5-(methylsulfonyl)-2,5-diazabicyclo[2.2.2]octan-2-yl)methyl)benzo[d]isoxazol-3-yl)dihydropyrimidine-2,4(1H,3H)-dione], the “% degradation of WIZ (100-Amax)” value was 83%, the “WIZ Amax” value is 17% and the DC50 worked out at 134 nM.

Regarding `CCN1CCN(Cc2ccc3onc(N4CCC(=O)NC4=O)c3c2)[C@H](C)C1` [Example 66, (R)-1-(5-((4-ethyl-2-methylpiperazin-1-yl)methyl)benzo[d]isoxazol-3-yl)dihydropyrimidine-2,4(1H,3H)-dione], the Dmax at 25 µM amounted to 86%, the remaining activity at 25 µM is 14% and the DC50 turned out to be 45 nM.

On to `C[C@@H]1CN(CC(=O)N2CCCCC2)CCN1Cc1ccc2onc(N3CCC(=O)NC3=O)c2c1` [Example 70, (R)-1-(5-((2-methyl-4-(2-oxo-2-(piperidin-1-yl)ethyl)piperazin-1-yl)methyl)benzo[d]isoxazol-3-yl)dihydropyrimidine-2,4(1H,3H)-dione], for which the Dmax at 25 µM came out at 78%, the remaining activity at 25 µM came out at 22% and the DC50 was found to be 300 nM.

On to `CC(C)[C@H]1CN(Cc2ccc3onc(N4CCC(=O)NC4=O)c3c2)CCN1CC1CCOCC1` [Example 38, (S)-1-(5-((3-isopropyl-4-((tetrahydro-2H-pyran-4-yl)methyl)piperazin-1-yl)methyl)benzo[d]isoxazol-3-yl)dihydropyrimidine-2,4(1H,3H)-dione], for which the Dmax at 25 µM came out at 76%, the remaining activity at 25 µM turned out to be 24% and the DC50 worked out at 140 nM.
